The text below walks through data of ChEMBL document CHEMBL1649555, “Characterization of pABVA01, a plasmid encoding the OXA-24 carbapenemase from Italian isolates of Acinetobacter baumannii” (2009).

Values after ≈ are worked out from the molar mass of the structure shown.

Common to all, as to assay type: functional
For experiment [1], the system named is Acinetobacter baumannii. Kind of experiment: Antibacterial activity against blaOXA-24-positive Acinetobacter baumannii isolate VA-566/00 by CLSI broth microdilution method.
Experiment [2] relates to Acinetobacter baumannii. As to the kind of experiment: Antibacterial activity against blaOXA-24-positive Acinetobacter baumannii isolate N50 by CLSI broth microdilution method.
Experiment [3] deals with Acinetobacter baumannii. As to the kind of experiment: Antibacterial activity against blaOXA-24-positive Acinetobacter baumannii isolate RUH134 harboring plasmid ABVA01 by CLSI broth microdilution method.
In experiment [4] the test system is Acinetobacter baumannii. Kind of experiment: Antibacterial activity against blaOXA-24-positive Acinetobacter baumannii isolate RUH134 by CLSI broth microdilution method.
In experiment [5] the test system is Acinetobacter baumannii. As to the kind of experiment: Antibacterial activity against blaOXA-24-positive Acinetobacter baumannii isolate VA-566/00 by CLSI broth microdilution method in presence of Sulbactam.
The test system of experiment [6] is Acinetobacter baumannii. Kind of experiment: Antibacterial activity against blaOXA-24-positive Acinetobacter baumannii isolate N50 by CLSI broth microdilution method in presence of Sulbactam.
The subject of experiment [7] is Acinetobacter baumannii. As to the kind of experiment: Antibacterial activity against blaOXA-24-positive Acinetobacter baumannii isolate RUH134 harboring plasmid ABVA01 by CLSI broth microdilution method in presence of Sulbactam.
The subject of experiment [8] is Acinetobacter baumannii. As to the kind of experiment: Antibacterial activity against blaOXA-24-positive Acinetobacter baumannii isolate RUH134 by CLSI broth microdilution method in presence of Sulbactam.

Turning to `NCC[C@H](O)C(=O)N[C@@H]1C[C@H](N)[C@@H](O[C@H]2O[C@H](CN)[C@@H](O)[C@H](O)[C@H]2O)[C@H](O)[C@H]1O[C@H]1O[C@H](CO)[C@@H](O)[C@H](N)[C@H]1O` [AMIKACIN], the MIC against Acinetobacter baumannii [1] worked out at 64 mg/L (≈ 109 µM); in the experiment with Acinetobacter baumannii [2], 256 mg/L (≈ 437 µM); against Acinetobacter baumannii [3], 4 mg/L (≈ 6.83 µM); in the experiment with Acinetobacter baumannii [4] it was 4 mg/L (≈ 6.83 µM).

As for `CC1(C)S[C@@H]2[C@H](NC(=O)[C@H](N)c3ccccc3)C(=O)N2[C@H]1C(=O)O` [AMPICILLIN], the MIC with Acinetobacter baumannii [5] was 64 mg/L; in the experiment with Acinetobacter baumannii [6], 32 mg/L; in the experiment on Acinetobacter baumannii [7], 64 mg/L; in the experiment on Acinetobacter baumannii [8], 64 mg/L.

Turning to `CC(C)(O/N=C(\C(=O)N[C@@H]1C(=O)N2C(C(=O)[O-])=C(C[n+]3ccccc3)CS[C@H]12)c1csc(N)n1)C(=O)O` [CEFTAZIDIME], the MIC in the experiment with Acinetobacter baumannii [1] is greater than 256 mg/L; against Acinetobacter baumannii [2] it was greater than 256 mg/L; in the experiment with Acinetobacter baumannii [3] it was 16 mg/L (≈ 29.3 µM); with Acinetobacter baumannii [4], 16 mg/L (≈ 29.3 µM).

For `C[C@@H](O)[C@H]1C(=O)N2C(C(=O)O)=C(SCCNC=N)C[C@H]12` [IMIPENEM ANHYDROUS], the MIC with Acinetobacter baumannii [1] turned out to be 256 mg/L (≈ 855 µM); against Acinetobacter baumannii [2], 128 mg/L (≈ 428 µM); against Acinetobacter baumannii [3], 64 mg/L (≈ 214 µM); with Acinetobacter baumannii [4] it was 0.25 mg/L (≈ 0.835 µM).

As to `C[C@@H](O)[C@H]1C(=O)N2C(C(=O)O)=C(S[C@@H]3CN[C@H](C(=O)N(C)C)C3)[C@H](C)[C@H]12` [MEROPENEM], the minimal inhibitory concentration (MIC) against Acinetobacter baumannii [1] is 256 mg/L (≈ 668 µM); in the experiment on Acinetobacter baumannii [2], 128 mg/L (≈ 334 µM); in the experiment on Acinetobacter baumannii [3], 128 mg/L (≈ 334 µM); with Acinetobacter baumannii [4], 1 mg/L (≈ 2.61 µM).

As for `CN(C)c1cc(NC(=O)CNC(C)(C)C)c(O)c2c1C[C@H]1C[C@H]3[C@H](N(C)C)C(O)=C(C(N)=O)C(=O)[C@@]3(O)C(O)=C1C2=O` [TIGECYCLINE], the MIC with Acinetobacter baumannii [1] is 4 mg/L (≈ 6.83 µM); against Acinetobacter baumannii [2], 1 mg/L (≈ 1.71 µM); in the experiment with Acinetobacter baumannii [3], 1 mg/L (≈ 1.71 µM); in the experiment with Acinetobacter baumannii [4] it was 1 mg/L (≈ 1.71 µM).

Consider COLISTIN, for which the MIC was 0.5 mg/L with Acinetobacter baumannii [1], greater than 8 mg/L against Acinetobacter baumannii [2], 0.5 mg/L against Acinetobacter baumannii [3] and 0.5 mg/L in the experiment with Acinetobacter baumannii [4].

Regarding GENTAMICIN, the minimum inhibitory concentration (MIC) with Acinetobacter baumannii [1], against Acinetobacter baumannii [2], against Acinetobacter baumannii [3] and against Acinetobacter baumannii [4] was greater than 256 mg/L each time.
